From patent publication US10004701B2, “Methods and compositions for treating infection” (UNIVERSITY OF ROCHESTER, priority 2012, dated 2018)
Structures can show the parent of a compound that is named as a salt. Where two headings read alike, the source gives them in different places.

Experiments:
Assay in all cases: AK assay 384-well format, Prestwick library screening
E. faecium = format: cell-based, Enterococcus faecium; details: 50 μM final drug concentration; for fold induction at 50 µM: Enterococcus faecium, 3 h
[1] = tested on: S. aureus strain USA300-0114; format: cell-based, Staphylococcus aureus; details: 50 μM final drug concentration; for fold induction at 50 µM: Staphylococcus aureus, USA300, 3 h
K. pneumoniae = format: cell-based, Klebsiella pneumoniae; details: 50 μM final drug concentration; for fold induction at 50 µM: Klebsiella pneumoniae, 3 h
[2] = tested on: A. baumannii strain 98-37-09; format: cell-based, Acinetobacter baumannii; details: 50 μM final drug concentration; for fold induction at 50 µM: Acinetobacter baumannii, 983709, 3 h
P. aeruginosa = format: cell-based, Pseudomonas aeruginosa; details: 50 μM final drug concentration; for fold induction at 50 µM: Pseudomonas aeruginosa, 3 h
E. cloacae = format: cell-based, Enterobacter cloacae; details: 50 μM final drug concentration; for fold induction at 50 µM: Enterobacter cloacae, 3 h
E. coli = format: cell-based, Escherichia coli; details: 50 μM final drug concentration; for fold induction at 50 µM: Escherichia coli, 3 h
[3] = planktonic E. faecium, positive cutoff 3-fold increase, read-out: AK-based Prestwick library screening result, E. faecium (fold increase in extracellular AK activity)
[4] = planktonic S. aureus, positive cutoff 3-fold increase, read-out: AK-based Prestwick library screening result, S. aureus (fold increase in extracellular AK activity)
[5] = planktonic K. pneumoniae, positive cutoff 3-fold increase, read-out: AK-based Prestwick library screening result, K. pneumoniae (fold increase in extracellular AK activity)
[6] = planktonic A. baumannii, positive cutoff 3-fold increase, read-out: AK-based Prestwick library screening result, A. baumannii (fold increase in extracellular AK activity)
[7] = planktonic P. aeruginosa, positive cutoff 3-fold increase, read-out: AK-based Prestwick library screening result, P. aeruginosa (fold increase in extracellular AK activity)
[8] = planktonic E. cloacae, positive cutoff 3-fold increase, read-out: AK-based Prestwick library screening result, E. cloacae (fold increase in extracellular AK activity)
[9] = planktonic E. coli, positive cutoff 3-fold increase, read-out: AK-based Prestwick library screening result, E. coli (fold increase in extracellular AK activity)
[10] = cutoff for positive-scoring molecules 3-fold increase, read-out: AK-based Prestwick Library Screening Results, E. faecium (fold increase in extracellular AK activity)
[11] = cutoff for positive-scoring molecules 3-fold increase, read-out: AK-based Prestwick Library Screening Results, S. aureus (fold increase in extracellular AK activity)
[12] = cutoff for positive-scoring molecules 3-fold increase, read-out: AK-based Prestwick Library Screening Results, K. pneumoniae (fold increase in extracellular AK activity)
[13] = cutoff for positive-scoring molecules 3-fold increase, read-out: AK-based Prestwick Library Screening Results, A. baumannii (fold increase in extracellular AK activity)
[14] = cutoff for positive-scoring molecules 3-fold increase, read-out: AK-based Prestwick Library Screening Results, P. aeruginosa (fold increase in extracellular AK activity)
[15] = cutoff for positive-scoring molecules 3-fold increase, read-out: AK-based Prestwick Library Screening Results, E. cloacae (fold increase in extracellular AK activity)
[16] = cutoff for positive-scoring molecules 3-fold increase, read-out: AK-based Prestwick Library Screening Results, E. coli (fold increase in extracellular AK activity)

Compound CO[C@H]1/C=C/O[C@@]2(C)Oc3c(C)c(O)c4c(c3C2=O)C2=NC3(CCN(CC(C)C)CC3)NC2=C(NC(=O)/C(C)=C\C=C\[C@H](C)[C@H](O)[C@@H](C)[C@@H](O)[C@@H](C)[C@H](OC(C)=O)[C@@H]1C)C4=O [Rifabutin] has a fold induction at 50 µM (E. faecium; [3]) of 1.2, a fold induction at 50 µM [1, 4] of 0.7 and a fold induction at 50 µM (K. pneumoniae; [5]) of 1.3. For the same compound, the fold induction at 50 µM [2, 6] was 3.3, the fold induction at 50 µM (P. aeruginosa; [7]) was 0.6 and the fold induction at 50 µM (E. cloacae; [8]) was 1.6. The fold induction at 50 µM (E. coli; [9]) was 1.3.

For CO[C@H]1/C=C/O[C@@]2(C)Oc3c(C)c(O)c4c(O)c(c(/C=N/N5CCN(C)CC5)c(O)c4c3C2=O)NC(=O)/C(C)=C\C=C\[C@H](C)[C@H](O)[C@@H](C)[C@@H](O)[C@@H](C)[C@H](OC(C)=O)[C@@H]1C [Rifampicin], the fold induction at 50 µM (E. faecium; planktonic, cutoff for positive 3-fold increase, read-out: AK-based Prestwick Library Screening Results, E. faecium (fold increase in extracellular AK activity)) was 0.8, the fold induction at 50 µM ([1]; planktonic, cutoff for positive 3-fold increase, read-out: AK-based Prestwick Library Screening Results, S. aureus (fold increase in extracellular AK activity)) was 0.8 and the fold induction at 50 µM (K. pneumoniae; planktonic, cutoff for positive 3-fold increase, read-out: AK-based Prestwick Library Screening Results, K. pneumoniae (fold increase in extracellular AK activity)) was 0.7. The fold induction at 50 µM ([2]; planktonic, cutoff for positive 3-fold increase, read-out: AK-based Prestwick Library Screening Results, A. baumannii (fold increase in extracellular AK activity)) was 3, the fold induction at 50 µM (P. aeruginosa; planktonic, cutoff for positive 3-fold increase, read-out: AK-based Prestwick Library Screening Results, P. aeruginosa (fold increase in extracellular AK activity)) was 0.6 and the fold induction at 50 µM (E. cloacae; planktonic, cutoff for positive 3-fold increase, read-out: AK-based Prestwick Library Screening Results, E. cloacae (fold increase in extracellular AK activity)) was 1.4. The fold induction at 50 µM (E. coli; planktonic, cutoff for positive 3-fold increase, read-out: AK-based Prestwick Library Screening Results, E. coli (fold increase in extracellular AK activity)) was 1.3.

Nc1nc2ccc(OC(F)(F)F)cc2s1 [Riluzole hydrochloride] was tested, and the fold induction at 50 µM (E. faecium; 384-well format, cutoff for positive-scoring molecules 3-fold increase, read-out: AK-based Prestwick Library Screening Results, E. faecium (increase in extracellular AK activity)) was 0.3, the fold induction at 50 µM ([1]; 384-well format, cutoff for positive-scoring molecules 3-fold increase, read-out: AK-based Prestwick Library Screening Results, S. aureus (increase in extracellular AK activity)) was 0.2 and the fold induction at 50 µM (K. pneumoniae; 384-well format, cutoff for positive-scoring molecules 3-fold increase, read-out: AK-based Prestwick Library Screening Results, K. pneumoniae (increase in extracellular AK activity)) was 0.2. The fold induction at 50 µM ([2]; 384-well format, cutoff for positive-scoring molecules 3-fold increase, read-out: AK-based Prestwick Library Screening Results, A. baumannii (increase in extracellular AK activity)) was 0.2, the fold induction at 50 µM (P. aeruginosa; 384-well format, cutoff for positive-scoring molecules 3-fold increase, read-out: AK-based Prestwick Library Screening Results, P. aeruginosa (increase in extracellular AK activity)) was 0.2 and the fold induction at 50 µM (E. cloacae; 384-well format, cutoff for positive-scoring molecules 3-fold increase, read-out: AK-based Prestwick Library Screening Results, E. cloacae (increase in extracellular AK activity)) was 0.5. It also gave a fold induction at 50 µM (E. coli; 384-well format, cutoff for positive-scoring molecules 3-fold increase, read-out: AK-based Prestwick Library Screening Results, E. coli (increase in extracellular AK activity)) of 0.2.

CCC(=O)[C@@]1(C)[C@H](C)C[C@H]2[C@@H]3CCC4=CC(=O)C=C[C@]4(C)[C@H]3[C@@H](O)C[C@@]21C [Rimexolone] showed a fold induction at 50 µM (E. faecium; [3]) of 0.9, a fold induction at 50 µM [1, 4] of 1.1 and a fold induction at 50 µM (K. pneumoniae; [5]) of 0.8. It also gave a fold induction at 50 µM [2, 6] of 0.9, a fold induction at 50 µM (P. aeruginosa; [7]) of 1 and a fold induction at 50 µM (E. cloacae; [8]) of 4.9. It also gave a fold induction at 50 µM (E. coli; [9]) of 0.9.

With Cc1nc2n(c(=O)c1CCN1CCC(c3noc4cc(F)ccc34)CC1)CCCC2 [Risperidone] the fold induction at 50 µM (E. faecium; planktonic E. faecium, […], read-out: AK-based Prestwick library screening result, E. faecium (fold increase in extracellular AK activity)) was 1, the fold induction at 50 µM ([1]; planktonic S. aureus, […], read-out: AK-based Prestwick library screening result, S. aureus (fold increase in extracellular AK activity)) was 1.3 and the fold induction at 50 µM (K. pneumoniae; planktonic K. pneumoniae, […], read-out: AK-based Prestwick library screening result, K. pneumoniae (fold increase in extracellular AK activity)) was 1.1. For the same compound, the fold induction at 50 µM ([2]; planktonic A. baumannii, […], read-out: AK-based Prestwick library screening result, A. baumannii (fold increase in extracellular AK activity)) was 1.5, the fold induction at 50 µM (P. aeruginosa; planktonic P. aeruginosa, […], read-out: AK-based Prestwick library screening result, P. aeruginosa (fold increase in extracellular AK activity)) was 1.1 and the fold induction at 50 µM (E. cloacae; planktonic E. cloacae, […], read-out: AK-based Prestwick library screening result, E. cloacae (fold increase in extracellular AK activity)) was 1.3. The fold induction at 50 µM (E. coli; planktonic E. coli, […], read-out: AK-based Prestwick library screening result, E. coli (fold increase in extracellular AK activity)) was 1.1.

For CC(NCCc1ccc(O)cc1)C(O)c1ccc(O)cc1 (stereo not shown) [Ritodrine hydrochloride], the fold induction at 50 µM (E. faecium; planktonic E. faecium, cutoff for positive-scoring molecules 3-fold increase, read-out: AK-based Prestwick Library Screening Results, E. faecium (increase in extracellular AK activity)) was 0.9, the fold induction at 50 µM ([1]; planktonic S. aureus, cutoff for positive-scoring molecules 3-fold increase, read-out: AK-based Prestwick Library Screening Results, S. aureus (increase in extracellular AK activity)) was 0.5 and the fold induction at 50 µM (K. pneumoniae; planktonic K. pneumoniae, cutoff for positive-scoring molecules 3-fold increase, read-out: AK-based Prestwick Library Screening Results, K. pneumoniae (increase in extracellular AK activity)) was 0.7. For the same compound, the fold induction at 50 µM ([2]; planktonic A. baumannii, cutoff for positive-scoring molecules 3-fold increase, read-out: AK-based Prestwick Library Screening Results, A. baumannii (increase in extracellular AK activity)) was 0.8, the fold induction at 50 µM (P. aeruginosa; planktonic P. aeruginosa, cutoff for positive-scoring molecules 3-fold increase, read-out: AK-based Prestwick Library Screening Results, P. aeruginosa (increase in extracellular AK activity)) was 0.9 and the fold induction at 50 µM (E. cloacae; planktonic E. cloacae, cutoff for positive-scoring molecules 3-fold increase, read-out: AK-based Prestwick Library Screening Results, E. cloacae (increase in extracellular AK activity)) was 0.9. It also gave a fold induction at 50 µM (E. coli; planktonic E. coli, cutoff for positive-scoring molecules 3-fold increase, read-out: AK-based Prestwick Library Screening Results, E. coli (increase in extracellular AK activity)) of 0.8.

COc1ccc(C2CNC(=O)C2)cc1OC1CCCC1 (stereo not shown) [Rolipram] gave a fold induction at 50 µM (E. faecium; [10]) of 1, a fold induction at 50 µM [1, 11] of 1.3 and a fold induction at 50 µM (K. pneumoniae; [12]) of 1. It also gave a fold induction at 50 µM [2, 13] of 1.2, a fold induction at 50 µM (P. aeruginosa; [14]) of 1.2 and a fold induction at 50 µM (E. cloacae; [15]) of 1.7. It also gave a fold induction at 50 µM (E. coli; [16]) of 1.1.

CN(C)[C@@H]1C(O)=C(C(=O)NCN2CCCC2)C(=O)[C@@]2(O)C(O)=C3C(=O)c4c(O)cccc4[C@@](C)(O)[C@H]3C[C@@H]12 [Rolitetracycline] gave a fold induction at 50 µM (E. faecium; [10]) of 1, a fold induction at 50 µM [1, 11] of 1.1 and a fold induction at 50 µM (K. pneumoniae; [12]) of 1. For the same compound, the fold induction at 50 µM [2, 13] was 1.2, the fold induction at 50 µM (P. aeruginosa; [14]) was 1.1 and the fold induction at 50 µM (E. cloacae; [15]) was 1.7. For the same compound, the fold induction at 50 µM (E. coli; [16]) was 1.1.

For Cn1c([N+](=O)[O-])cnc1COC(N)=O [Ronidazole], the fold induction at 50 µM (E. faecium; [3]) was 1.1, the fold induction at 50 µM [1, 4] was 1.3 and the fold induction at 50 µM (K. pneumoniae; [5]) was 1.7. For the same compound, the fold induction at 50 µM [2, 6] was 1.6, the fold induction at 50 µM (P. aeruginosa; [7]) was 1 and the fold induction at 50 µM (E. cloacae; [8]) was 1.6. The fold induction at 50 µM (E. coli; [9]) was 1.1.

For O=[N+]([O-])c1cc([As](=O)(O)O)ccc1O [Roxarsone], the “AK-based Prestwick Library Screening Results, E. faecium (fold increase in extracellular AK activity)” value (E. faecium; […]) was 0.8, the “AK-based Prestwick Library Screening Results, S. aureus (fold increase in extracellular AK activity)” value ([1]; […]) was 0.6 and the “AK-based Prestwick Library Screening Results, K. pneumoniae (fold increase in extracellular AK activity)” value (K. pneumoniae; […]) was 0.4. For the same compound, the “AK-based Prestwick Library Screening Results, A. baumannii (fold increase in extracellular AK activity)” value ([2]; […]) was 0.5, the “AK-based Prestwick Library Screening Results, P. aeruginosa (fold increase in extracellular AK activity)” value (P. aeruginosa; […]) was 0.5 and the “AK-based Prestwick Library Screening Results, E. cloacae (fold increase in extracellular AK activity)” value (E. cloacae; […]) was 0.5. The “AK-based Prestwick Library Screening Results, E. coli (fold increase in extracellular AK activity)” value (E. coli; […]) was 0.4.
